# Laboratory results reported in patent publication US20090227619A1, “Harmine derivatives, intermediates used in their preparations, preparation processes and use therefo” (priority 2003, published 2009).
# Where two headings read alike, the source gives them in different places.
# How the values were obtained:
# HepG2 = test: In vitro cytotoxicity, IC50 by MTT method, HepG2; format: cell-based, human; conditions: Homo sapiens; HepG2 cell strain; read-out: IC50 HepG2
# In short: (§1)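 MTT viability, 48 h exposure: cells 10^5/ml in RPMI1640 + 10% FBS, 37 °C/5% CO2; MTT 4 h, DMSO solubilisation, A490.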
# PLA-801 = test: In vitro cytotoxicity, IC50 by MTT method, PLA-801; format: cell-based; conditions: PLA-801 cell strain; read-out: IC50 PLA-801
# In short: as §1
# Bel-7402 = test: In vitro cytotoxicity, IC50 by MTT method, Bel-7402; format: cell-based; conditions: Homo sapiens, Bel-7402; Bel7402 cell strain; read-out: IC50 Bel7402
# In short: as §1
# BGC-823 = test: In vitro cytotoxicity, IC50 by MTT method, BGC-823; format: cell-based; conditions: Homo sapiens, BGC-823; BGC823 cell strain; read-out: IC50 BGC823
# In short: as §1
# Hela = test: In vitro cytotoxicity, IC50 by MTT method, Hela; format: cell-based; conditions: Homo sapiens; Hela cell strain; read-out: IC50 Hela
# In short: as §1
# Lovo = test: In vitro cytotoxicity, IC50 by MTT method, Lovo; format: cell-based; conditions: Homo sapiens; Lovo cell strain; read-out: IC50 Lovo
# In short: as §1
# NIH3T3 = test: In vitro cytotoxicity, IC50 by MTT method, NIH3T3; format: cell-based; conditions: Mus musculus; NIH3T3 cell strain; read-out: IC50 NIH3T3
# In short: as §1
# CT-DNA = test: DNA thermal denaturation, determination of ΔTm; format: binding; conditions: 20 uM compound, Tm of CT-DNA alone 61° C.
# Protocol: Experiments were carried out in PE buffer (1 mM Na2HPO4, 0.1 mM EDTA, pH 7.6) in a thermostatically controlled cell hold, and the quartz cuvette (1 cm path length) was heated by circulating water at a heating rate of 0.5° C./min from 25 to 95° C. Amsacrine and Doxorubicin Hydrochloride were used as standards. In all cases, the concentration of CT-DNA was 15 ug/ml. The ‘melting’ temperature Tm was taken as the mid-point of the hyperchromic transition.
# ΔTm=Tm^drug-DNA complex−Tm^DNA alone
# The ΔTm of each compound was calculated, Experiments were repeated three times, and an average value was calculated.
# Kunming mice = conditions: for Death rate: single i.p.
# Protocol: (§2) Five grades of dosages for each sample according to the results of the preliminary test, each dosage being 0.8 larger than the previous one
# (§3) During the experiment, each sample was added a small amount of Tween-80 to facilitate dissolution after the sample was weighed, and then 0.5% CMC-Na solution was gradually added to achieve the desired concentration. The experimental volume was 0.5 ml/20 g mouse.
# (§4) Single injection via intraperitoneal (i.p.) to different groups mice.
# (§5) Kunming mice were divided into different groups randomly according to their sex. The medicament was intraperitoneally administered to each group of mice according to the dosage setting. After the administration of the medicaments, mice were observed continuously for the first 2 h for any gross behavioral changes and deaths. Dead animals were dissected and examined for any possible organ damage. […] Conditions of animals died within two week were recorded. After two weeks, all survived animals were sacrificed and checked macroscopically for possible damage to the heart, liver, kidneys and so on. Viscera that had substantive pathological changes were pathologically examined.
# Lewis lung cancer = conditions: Lewis lung cancer; for Body weight of the animals, end, First time / Body weight of the animals, end, Second time: ip × 10qd;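 for all read-outs here: mice implanted subcutaneously in the axilla with Lewis lung tumor cells, treated starting the following day, killed roughly three weeks after implantation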
# S180 sarcoma = conditions: S180 sarcoma; for Body weight of the animals, beginning, First time / Body weight of the animals, end, First time / Inhibition rate, First time / Weight of the tumor X ± SD, First time / Body weight of the animals, beginning, Second time / Body weight of the animals, end, Second time / Inhibition rate, Second time: ip × 10qd
# Description: There was one group of 8 to 10 mice C57BL/6 and Kunming mice for the anti-tumor tests and two groups of mice for negative control.
# (3) Sources of tumors: Lewis lung cancer cells and S180 sarcoma in mice, which were sub-cultured and maintained by Pharmacological Center of Shanghai Pharmaceutical Industrial Research Institute.
# All samples were weighed and added a small amount of Tween-80 to facilitate dissolution during the experiment, and then 0.5% CMC-Na solution was gradually added to achieve the desired concentration. The volume for experiment was 0.5 ml/20 g mouse.
# The medicaments were intraperitoneally administered once a day continuously for 10 days.
# For the negative control group, a vehicle of the same volume was intraperitoneally administered once a day continuously for 10 days. For the positive control group, CTX was administered in the dosage of 30 mg/kg once a day continuously for 7 days.
# In vivo anti-tumor subcutaneous vaccination in the axilla was employed. Wildly grown tumor source was taken under sterile conditions to form a cell suspension of about 1×10^7 ml by homogenization method. For a corresponding mouse host, the suspension was injected in the axilla in an amount of 0.2 ml/mouse. The next day, the medicaments were administered according to the design of the tests. About three weeks later, all the groups of animals were executed. The tumors were taken from the animals and weighed. The inhibition rate of tumors was calculated according to the following formula:
# T: average tumor weight of treated group; C: average tumor weight of negative control group.
# in vivo = conditions: both, Kunming, mouse, ip
# Protocol: as §2, §3, §4, §5
# 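Throughout, for Death rate: acute toxicity in Kunming mice grouped by sex, one intraperitoneal dose at five graded levels in Tween-80 plus 0.5% CMC-Na, deaths monitored over two weeks.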
# 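Throughout, for LD50: acute toxicity in Kunming mice grouped by sex, one intraperitoneal dose at five graded levels in Tween-80 plus 0.5% CMC-Na, deaths monitored over two weeks.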
smiles,measurement,setting,value
"CCOC(=O)c1cc2c3ccccc3n(Cc3ccccc3)c2cn1 [Compound 33, ethyl 9-benzyl-β-carboline-3-carboxylate]",IC50,HepG2,80 µM
same,IC50,PLA-801,170 µM
same,IC50,Bel-7402,340 µM
same,IC50,BGC-823,150 µM
same,IC50,Hela,10 µM
same,IC50,Lovo,120 µM
same,IC50,NIH3T3,50 µM
same,ΔTm,"CT-DNA; CT-DNA 15 ug/ml, PE buffer pH 7.6",−1.2 °C
same,ΔTm,CT-DNA; CT-DNA thermal denaturation,−1.2 °C
same,Death rate,"Kunming mice; 50% male 50% female mice, 240 mg/kg",50
same,Death rate,"Kunming mice; 50% male 50% female mice, 300 mg/kg",90
same,Death rate,"Kunming mice; female mice, 240 mg/kg",60
same,Death rate,"Kunming mice; female mice, 300 mg/kg",100
same,Death rate,"Kunming mice; male mice, 240 mg/kg",40
same,Death rate,"Kunming mice; male mice, 300 mg/kg",80
same,LD50,"Kunming mice; mouse, in vivo, ip",211 to 274 mg/kg
same,"Body weight of the animals, end, First time",Lewis lung cancer; Dosage 50 (mg/ml),25.4 g
same,"Body weight of the animals, end, Second time",Lewis lung cancer; Dosage 50 (mg/ml),24.9 g
same,"Body weight of the animals, beginning, First time","Lewis lung cancer; Dosage 50, ip × 10qd",20.3 g
same,"Inhibition rate, First time","Lewis lung cancer; Dosage 50, ip × 10qd",34.16%
same,"Weight of the tumor X ± SD, First time","Lewis lung cancer; Dosage 50, ip × 10qd",1.60 ± 0.09 g
same,"Body weight of the animals, beginning, Second time","Lewis lung cancer; Dosage 50, ip × 10qd",18.9 g
same,"Inhibition rate, Second time","Lewis lung cancer; Dosage 50, ip × 10qd",31.06%
same,"Weight of the tumor X ± SD, Second time","Lewis lung cancer; Dosage 50, ip × 10qd",2.02 ± 0.18 g
same,"Body weight of the animals, end, First time",Lewis lung cancer; Dosage 100 (mg/ml),24.7 g
same,"Body weight of the animals, end, Second time",Lewis lung cancer; Dosage 100 (mg/ml),24.5 g
same,"Body weight of the animals, beginning, First time","Lewis lung cancer; Dosage 100, ip × 10qd",19.9 g
same,"Inhibition rate, First time","Lewis lung cancer; Dosage 100, ip × 10qd",42.80%
same,"Weight of the tumor X ± SD, First time","Lewis lung cancer; Dosage 100, ip × 10qd",1.39 ± 0.15 g
same,"Body weight of the animals, beginning, Second time","Lewis lung cancer; Dosage 100, ip × 10qd",19.0 g
same,"Inhibition rate, Second time","Lewis lung cancer; Dosage 100, ip × 10qd",43.34%
same,"Weight of the tumor X ± SD, Second time","Lewis lung cancer; Dosage 100, ip × 10qd",1.66 ± 0.12 g
same,Inhibition rate (%) Lewis cancer,"Lewis lung cancer; comparison table 43, in vivo",43.3%
same,"Body weight of the animals, beginning, First time",S180 sarcoma; Dosage 50 (mg/ml),19.4 g
same,"Body weight of the animals, end, First time",S180 sarcoma; Dosage 50 (mg/ml),24.4 g
same,"Inhibition rate, First time",S180 sarcoma; Dosage 50 (mg/ml),33.33%
same,"Weight of the tumor X ± SD, First time",S180 sarcoma; Dosage 50 (mg/ml),1.78 ± 0.17 g
same,"Body weight of the animals, beginning, Second time",S180 sarcoma; Dosage 50 (mg/ml),18.7 g
same,"Body weight of the animals, end, Second time",S180 sarcoma; Dosage 50 (mg/ml),25.6 g
same,"Inhibition rate, Second time",S180 sarcoma; Dosage 50 (mg/ml),32.22%
same,"Weight of the tumor X ± SD, Second time","S180 sarcoma; Dosage 50, ip × 10qd",1.83 ± 0.19 g
same,"Body weight of the animals, beginning, First time",S180 sarcoma; Dosage 100 (mg/ml),19.4 g
same,"Body weight of the animals, end, First time",S180 sarcoma; Dosage 100 (mg/ml),24.6 g
same,"Inhibition rate, First time",S180 sarcoma; Dosage 100 (mg/ml),42.70%
same,"Weight of the tumor X ± SD, First time",S180 sarcoma; Dosage 100 (mg/ml),1.53 ± 0.15 g
same,"Body weight of the animals, beginning, Second time",S180 sarcoma; Dosage 100 (mg/ml),18.6 g
same,"Body weight of the animals, end, Second time",S180 sarcoma; Dosage 100 (mg/ml),25.1 g
same,"Inhibition rate, Second time",S180 sarcoma; Dosage 100 (mg/ml),40.00%
same,"Weight of the tumor X ± SD, Second time","S180 sarcoma; Dosage 100, ip × 10qd",1.62 ± 0.30 g
same,Inhibition rate (%) S180 sarcomata,"S180 sarcoma; comparison table 43, in vivo",42.11%
same,LD50 at 2 weeks,in vivo,240 mg/kg
